Series [1] deals with S. aureus. In words: Growth inhibition (broth microdilution), S. aureus. It is filed as cell-based, Staphylococcus aureus. The following applies: for IC50: Table 3. The text has this:
(§1) The antimicrobial activity of each peptide can be tested following standard broth microdilution protocols recommended by the National Committee for Clinical Laboratory Standard. Multidrug-resistant Staphylococcus aureus strain (ATCC BAA-44) and Acinetobacter baumannii (ATCC BAA-747) can be used in this study, as well as Ampicillin- and streptomycin-resistant Escherichia coli (D31), obtained from the E. coli Genetic Resource Center (Yale University, New Haven, Conn.). Bacteria can be grown overnight in Tryptic Soy broth at 37° C. Then, cultures are diluted in Mueller-Hinton broth to a final concentration range of 2×10^4 to 2×10^5 CFU/ml. Bacterial inocula are incubated at 37° C. in phosphate-buffered saline (PBS) buffer (pH7.2) with various dilutions of peptide stock. The 18-hour absorbance data are used to calculate the percentage of inhibition for each sample by comparison with the absorbance of cultures without sample. Bacterial growth is measured by turbidity as optical density at 600 nm (OD600), using a Genesys 5 Spectrophotometer (Rochester, N.Y.) or equivalent instrument. All assays can be carried out in triplicate. The concentration of peptide that results in 50% inhibition of growth is recorded as the IC50. In addition the concentration of agents needed can be monitored to reduce the bacterial population by three logs, IC99.9. This is a more rigorous indicator of the amount needed to prevent an infection.
(§2) The antimicrobial activity of each triazine compound was tested by following standard broth microdilution protocols recommended by the National Committee for Clinical Laboratory Standard. All compounds were initially tested against Bacillus subtilis (ATCC 6633; Rockville, Md.). Bacteria were grown in Mueller Hinton Broth (MHB) at 37° C. for overnight. Then, cultures were diluted in MHB to a final concentration of 2×10^4 to 2×10^5 CFU/mL. Bacterial inocula were incubated at 37° C. in PBS buffer (pH 7.2) with varying concentrations of 2-fold dilution of triazine stocks. The 18-hour absorbance data were used to calculate the percent inhibition for each sample by comparing with the absorbance of cultures without triazine compounds. Bacterial growth was measured by turbidity as optical density at 600 nm using a Genesys 5 Spectrophotometer (Rochester, N.Y.).

In series [2] the test system is E. coli D31. The series is described as follows: Growth inhibition (broth microdilution), E. coli D31. It is filed as cell-based, Escherichia coli. Particulars: for IC50: Table 3, read-out: E. coli IC50.
Text: as §1, §2

The subject of series [3] is fresh sheep erythrocytes. The series is described as follows: Hemolytic activity. It is filed as cell-based. Here is the method: Hemolytic activity of triazine compounds is assessed using fresh sheep erythrocytes (Fitzgerald Inc., Concord, Mass.). The red blood cell suspension is incubated in PBS buffer (pH 7.2) with varying concentrations of sample stocks at 37° C. for 30 minutes, and then spun down at 3,000 rpm for 10 mins. The resulting supernatant is diluted by a factor of 40 with distilled water. The absorbance of the supernatant at 540 nm is measured using a Genesys 5 Spectrophotometer. Zero % and 100% hemolysis controls are obtained by incubating the cells with buffer and 1% Triton-X, respectively.
Hemolytic activity of three triazine compounds Is assessed on fresh sheep erythrocytes (Fitzgerald Inc., Concord, Mass.). The red blood cell suspension Is incubated in PBS buffer (pH 7.2) with varying concentrations of sample stocks at 37° C. for 30 minutes, and then spun down at 3,000 rpm for 10 mins. The resulting supernatant is diluted by a factor of 40 in distilled water. The absorbance of the supernatant at 540 nm is measured using a Genesys 5 Spectrophotometer. Zero hemolysis and 100% hemolysis controls are obtained by incubating the cells with buffer and 1% Triton-X, respectively. Sample concentration yielding 50% hemolysis is used as hemolytic dose (HD50) determined from dose-response curves.

Series [4] concerns A. baumannii. The series is described as follows: Growth inhibition (broth microdilution), A. baumannii. It is filed as cell-based, Acinetobacter baumannii. Particulars: Table 1.
Text: as §1, §2

Series [5] relates to B. subtilis. In words: Growth inhibition (broth microdilution), B. subtilis. The following applies: Bacillus subtilis; for MIC50 / MIC90: Table 2; for MIC50: read-out: B. Subtilis MIC50; for MIC90: read-out: B. Subtilis MIC90; for IC50: Table 3. Type of series: cell-based. As for the experimental part:
as §2

Series [6] has as its system A. baumannii. In words: Evolution of resistance on exposure to sublethal concentrations. It is filed as cell-based. The following applies: 400 generations of exposure to sublethal concentrations. The text has this:
FIG. 1 graphically depicts the experimental evaluation of the ability of A. baumannii to evolve resistance to sublethal TN5 and the AMP indolicidin relative to two antibiotics in current use. Changes in the IC50 of cultures exposed to sublethal doses of TN5 are expressed as ratios of the new to original values. For reference, the response of these cells to two current antibiotics is shown.
In particular, FIG. 1 depicts the results of the experimental evaluation of the ability of A. baumannii to evolve resistance to sublethal TN5 and the AMP indolicidin relative to two antibiotics in current use. Changes in the IC50 of cultures exposed to sublethal doses of TN5 are expressed as ratios of the new to original values. For reference, the response of these cells to ciprofloxacin and gentamycin, two current antibiotics is shown.

The mark [7] stands for this setting: Staphylococcus aureus, Table 2, read-out: S. Aureus MIC50.
[8] abbreviates: Staphylococcus aureus, Table 2, read-out: S. Aureus MIC90.
[9] abbreviates: Escherichia coli, D31, Table 2, read-out: E. Coli MIC50.
Where [10] appears, read: Escherichia coli, D31, Table 2, read-out: E. Coli MIC90.

The structures appear in SMILES notation. Values after ≈ are worked out from the molar mass of the structure shown. Where two headings read alike, the source gives them in different places.

Take `CCCCN(CCCC)CCCNc1nc(NCc2ccccc2)nc(NCc2cccc3ccccc23)n1` [TN4]: the MIC50 was 68 mg/L (≈ 129 µM) in series [1] (S. aureus, Table 1); 18.8 mg/L (≈ 35.8 µM) in series [2] (E. coli D31, Table 1); 302.5 mg/L (≈ 575 µM) in series [4]. Also, the MIC90 in series [1] (S. aureus, Table 1) worked out at 117.5 mg/L (≈ 223 µM); in series [2] (E. coli D31, Table 1) it was 62.5 mg/L (≈ 119 µM); in series [4], 462.5 mg/L (≈ 880 µM). Moreover, in series [3] (50% hemolysis, Table 1), the HD50 worked out at 221.3 µg/mL.
Take `CCCCN(CCCC)CCCNc1nc(NCCc2c[nH]c3ccccc23)nc(NCCc2c[nH]c3ccccc23)n1` [TZ-WK(Bu)2W]: the values for the MIC50 in series [1] (setting [7]), in series [2] (setting [9]) and in series [5] were 1.8 mg/L (≈ 3.09 µM), 21.3 mg/L (≈ 36.6 µM) and 1 mg/L (≈ 1.72 µM), respectively. The MIC90 amounted to 2.4 mg/L (≈ 4.13 µM) in series [1] (setting [8]), 55.2 mg/L (≈ 94.9 µM) in series [2] (setting [10]) and 3.1 mg/L (≈ 5.33 µM) in series [5]. The IC50 in series [1] (Staphylococcus aureus) was 1.8 mg/L (≈ 3.09 µM); in series [2] (Escherichia coli, D31), 21.3 mg/L (≈ 36.6 µM); in series [5], 1 mg/L (≈ 1.72 µM). Besides, in series [3] (Table 3), the HD50 was found to be 91.5 µg/mL.
In the case of `N=C(N)NCCNc1nc(NCCc2c[nH]c3ccccc23)nc(NCCc2c[nH]c3ccccc23)n1` [TZ-WRW], the results for the MIC50 in series [1] (setting [7]), in series [2] (setting [9]) and in series [5] were 3.3 mg/L (≈ 6.63 µM), 4.1 mg/L (≈ 8.24 µM) and 2.9 mg/L (≈ 5.83 µM), respectively. The MIC90 in series [1] (setting [8]) came to 3.5 mg/L (≈ 7.03 µM); in series [2] (setting [10]) it was 9.1 mg/L (≈ 18.3 µM); in series [5], 5.1 mg/L (≈ 10.2 µM). In addition, the IC50 in series [1] (Staphylococcus aureus) came out at 3.3 mg/L (≈ 6.63 µM); in series [2] (Escherichia coli, D31) it was 4.1 mg/L (≈ 8.24 µM); in series [5] it was 2.9 mg/L (≈ 5.83 µM). Besides, the HD50 in series [3] (Table 3) was determined as 43.6 µg/mL.
Take `CCCCN(CCCC)CCCNc1nc(NCc2ccccc2)nc(Nc2cccc3ccccc23)n1` [TN2]: the MIC50 in series [1] (S. aureus, Table 1) is 12.1 mg/L (≈ 23.6 µM); in series [2] (E. coli D31, Table 1), 26.9 mg/L (≈ 52.6 µM); in series [4] it was 12.8 mg/L (≈ 25 µM). For the same compound, the MIC90 in series [1] (S. aureus, Table 1) was 14.55 mg/L (≈ 28.4 µM); in series [2] (E. coli D31, Table 1), 55.6 mg/L (≈ 109 µM); in series [4], 15.8 mg/L (≈ 30.9 µM). The HD50 in series [3] (50% hemolysis, Table 1) is 840.8 µg/mL.
Consider `O=C(O)c1cn(C2CC2)c2cc(N3CCNCC3)c(F)cc2c1=O` [ciprofloxacin], for which the “Acquired resistance (change in IC50, ratio of new to original)” value in series [6] is “significant increase in the IC50”.
